ChEMBL document CHEMBL3580609, “Novel phthalimide derivatives with TNF- and IL-1 expression inhibitory and apoptotic inducing properties” (Medchemcomm, 2014)
The source made the active and inactive calls. The rule behind the calls is not given here.

Assays:
[1] = tested on: Jurkat; assay: Inhibition of TNFalpha expression in human Jurkat cells containing GFP gene under control of TNF gene promoter at 100 uM incubated for 24 hrs; assay type: functional
[2] = tested on: Jurkat; assay: Inhibition of TNFalpha expression in human Jurkat cells containing GFP gene under control of TNF gene promoter at 10 uM incubated for 24 hrs; assay type: functional
[3] = tested on: Peritoneal macrophage cell; assay: Inhibition of TNFalpha production in LPS-induced mouse peritoneal macrophages at 50 uM incubated for 24 hrs by sandwich ELISA method; assay type: functional, cell-based
[4] = tested on: Peritoneal macrophage cell; assay: Inhibition of IL-1beta production in LPS-induced mouse peritoneal macrophages at 50 uM incubated for 24 hrs by sandwich ELISA method; assay type: functional, cell-based
[5] = tested on: Jurkat; assay: Induction of apoptosis in human Jurkat cells at 10 uM incubated for 24 hrs by FITC-labeled capsase-3 substrate based Nucview-488 caspase-3 assay; assay type: functional, cell-based
[6] = tested on: Jurkat; assay: Induction of total cell death in human Jurkat cells containing GFP gene under control of TNF gene promoter at 100 uM incubated for 24 hrs by propidium iodide staining based assay
[7] = tested on: Jurkat; assay: Induction of apoptosis in human Jurkat cells at 100 uM incubated for 24 hrs by FITC-labeled capsase-3 substrate based Nucview-488 caspase-3 assay; assay type: functional, cell-based
[8] = tested on: Jurkat; assay: Inhibition of TNFalpha expression in human Jurkat cells containing GFP gene under control of TNF gene promoter at 100 uM incubated for 24 hrs relative to thalidomide; assay type: functional
[9] = tested on: Jurkat; assay: Induction of total cell death in human Jurkat cells containing GFP gene under control of TNF gene promoter at 10 uM incubated for 24 hrs by propidium iodide staining based assay
[10] = tested on: Jurkat; assay: Inhibition of TNFalpha expression in human Jurkat cells containing GFP gene under control of TNF gene promoter at 10 uM incubated for 24 hrs relative to thalidomide; assay type: functional
[11] = tested on: Jurkat; assay: Inhibition of TNFalpha expression in human Jurkat cells containing GFP gene under control of TNF gene promoter incubated for 24 hrs; assay type: functional, cell-based
[12] = species: Mus musculus; assay: Reduction in serum cholesterol levels in Swiss white mouse after 16 days; assay type: functional
[13] = species: Mus musculus; assay: Reduction in serum triglyceride levels in Swiss white mouse after 14 days; assay type: functional

C[C@@H](C(=O)N/N=C\c1ccc(Cl)cc1)N1C(=O)c2ccccc2C1=O
inhibition [1]: Active | inhibition [2]: Active

CCOC(=O)[C@H](Cc1ccccc1)N1C(=O)c2ccccc2C1=O
inhibition [3]: Active | inhibition [4]: Active

C[C@@H](C(=O)O)N1C(=O)c2ccccc2C1=O
inhibition [3]: Active | inhibition [4]: Active

CC[C@H](C)[C@@H](C(=O)N/N=C\c1ccc(Cl)cc1)N1C(=O)c2ccccc2C1=O
Activity [5]: Active | inhibition [3]: Active | inhibition [1]: Active | Activity [6]: Toxic | Activity [7]: Active | inhibition [4]: Active | inhibition at 10 µM [2]: 13%

C[C@@H](C(=O)NN)N1C(=O)c2ccccc2C1=O
inhibition [3]: Active | inhibition [4]: Active

COc1ccc(/C=N\NC(=O)[C@H](Cc2ccccc2)N2C(=O)c3ccccc3C2=O)cc1
inhibition [3]: Active | inhibition [4]: Active

Nc1cccc2c1CN(C1CCC(=O)NC1=O)C2=O (configuration not stated) [LENALIDOMIDE]
fold change (FC) [8]: 2 | Activity [5]: Active | inhibition at 100 µM [1]: 14% | Activity [6]: Non-toxic | Activity [9]: Non-toxic | fold change (FC) [10]: 2 | Activity [7]: Active | inhibition at 10 µM [2]: 14%

C[C@@H](C(=O)N/N=C\c1ccccc1)N1C(=O)c2ccccc2C1=O
Activity [5]: inactive | inhibition [3]: Active | inhibition at 100 µM [1]: 9.8% | Activity [9]: Non-toxic | Activity [7]: inactive | inhibition [4]: Active | inhibition at 10 µM [2]: 9.8%

O=C(N/N=C\c1ccccc1)[C@H](Cc1ccccc1)N1C(=O)c2ccccc2C1=O
fold change (FC) [8]: 3 | inhibition [3]: Active | inhibition at 100 µM [1]: 17% | Activity [6]: Toxic | inhibition [11]: Dose-dependent effect | inhibition [4]: Active | inhibition [2]: inactive

CC[C@H](C)[C@@H](C(=O)N/N=C\c1ccc(OC)cc1)N1C(=O)c2ccccc2C1=O
inhibition [3]: Active | inhibition [4]: Active

O=C1CCC(N2C(=O)c3ccccc3C2=O)C(=O)N1 (configuration not stated) [THALIDOMIDE]
inhibition [3]: Active | inhibition at 100 µM [1]: 5% | Activity [6]: 2% | Activity [9]: 2% | inhibition [4]: Active | inhibition at 10 µM [2]: 5%

CC[C@H](C)[C@@H](C(=O)N/N=C\c1ccc(Cl)c(Cl)c1)N1C(=O)c2ccccc2C1=O
fold change (FC) [8]: 3 | inhibition [3]: Active | inhibition at 100 µM [1]: 17% | Activity [6]: Toxic | Activity [9]: Non-toxic | inhibition [11]: Dose-dependent effect | inhibition [4]: Active | inhibition [2]: inactive

COc1ccc(/C=N\NC(=O)[C@H](C)N2C(=O)c3ccccc3C2=O)cc1
inhibition [3]: Active | inhibition [4]: Active

C[C@@H](C(=O)N/N=C\c1ccc(Cl)c(Cl)c1)N1C(=O)c2ccccc2C1=O
inhibition [1]: Active | inhibition [2]: Active

CC(=O)c1ccccc1N1C(=O)c2ccccc2C1=O
inhibition (INH) [12]: 57% | inhibition (INH) [13]: 44%

O=C(N/N=C\c1ccc(Cl)cc1)[C@H](Cc1ccccc1)N1C(=O)c2ccccc2C1=O
inhibition [1]: Active | inhibition [2]: Active

CCOC(=O)[C@H]([C@@H](C)CC)N1C(=O)c2ccccc2C1=O
inhibition [3]: Active | inhibition [4]: Active

NNC(=O)[C@H](Cc1ccccc1)N1C(=O)c2ccccc2C1=O
inhibition [3]: Active | inhibition [4]: Active

CCOC(=O)[C@H](C)N1C(=O)c2ccccc2C1=O
inhibition [3]: Active | inhibition [4]: Active

O=C(N/N=C\c1ccc(Cl)c(Cl)c1)[C@H](Cc1ccccc1)N1C(=O)c2ccccc2C1=O
inhibition [1]: Active | Activity [6]: Toxic | inhibition [2]: Active

CC[C@H](C)[C@@H](C(=O)N/N=C\c1ccccc1)N1C(=O)c2ccccc2C1=O
inhibition [3]: Active | inhibition [1]: Active | Activity [9]: Non-toxic | inhibition [4]: Active | inhibition [2]: Active
